Measured values: ChEMBL document CHEMBL1126034, “Carboxylic acid replacement structure-activity relationships in suosan type sweeteners. A sweet taste antagonist. 1” (J Med Chem, 1992)

Tests used:
Type in all cases: functional
[1] = Compound was tested at the concentration of 4000(ppm) for percent sucrose intensity in aspartame solution contains concentration of 1500(ppm)
[2] = Compound was tested at the concentration of 4000(ppm) for percent sucrose intensity in aspartame solution contains concentration of 2000(ppm)
[3] = Compound was tested at the concentration of 4000(ppm) for percent sucrose intensity in aspartame solution contains concentration of 250(ppm)
[4] = Compound was tested at the concentration of 4000(ppm) for percent sucrose intensity in aspartame solution contains concentration of 2500(ppm)
[5] = Compound was tested at the concentration of 4000(ppm) for percent sucrose intensity in aspartame solution contains concentration of 3000(ppm)
[6] = Compound was tested at the concentration of 4000(ppm) for percent sucrose intensity in aspartame solution contains concentration of 500(ppm)
[7] = Compound was tested at the concentration of 4000(ppm) for percent sucrose intensity in aspartame solution contains concentration of 750(ppm)
[8] = Compound was tested at the concentration of 4000(ppm) for percent sucrose equivalent intensity in saccharin aqueous solution contains concentration of 330(ppm)
[9] = Compound was tested at the concentration of 4000(ppm) for percent sucrose equivalent intensity in sucralose aqueous solution contains concentration of 152(ppm)
[10] = Compound was tested at the concentration of 4000(ppm) for percent sucrose equivalent intensity in sucrose aqueous solution contains concentration of 10000(ppm)
[11] = Compound was tested at the concentration of 4000(ppm) for percent sucrose equivalent intensity in thaumatin aqueous solution contains concentration of 40(ppm)
[12] = Compound was tested at the concentration of 4000(ppm) for percent sucrose intensity in aspartame solution contains concentration of 1000(ppm)
[13] = Compound was tested at the concentration of 0(ppm) for bitterness rating in naringin aqueous solution contains concentration of 290(ppm)
[14] = Compound was tested at the concentration of 0(ppm) for bitterness rating in quinine aqueous solution contains concentration of 15(ppm)
[15] = Compound was tested at the concentration of 4000(ppm) for bitterness rating in caffiene aqueous solution contains concentration of 1100(ppm)
[16] = Compound was tested at the concentration of 4000(ppm) for bitterness rating in naringin aqueous solution contains concentration of 290(ppm)
[17] = Compound was tested at the concentration of 4000(ppm) for bitterness rating in quinine aqueous solution contains concentration of 15(ppm)
[18] = Compound was tested at the concentration of 0.0 mg/mL for percent sucrose intensity in aqueous sucrose solution(3.5%)
[19] = Compound was tested at the concentration of 0.0 mg/mL for percent sucrose intensity in aqueous sucrose solution(5.6%)
[20] = Compound was tested at the concentration of 0.0 mg/mL for percent sucrose intensity in aqueous sucrose solution(7.5%)
[21] = Compound was tested at the concentration of 1000(ppm) for percent sucrose intensity in aspartame solution contains concentration of 1000(ppm)
[22] = Compound was tested at the concentration of 0(ppm) for bitterness rating in caffiene aqueous solution contains concentration of 1100(ppm)
[23] = Compound was tested at the concentration of 0(ppm) for percent sucrose equivalent intensity in sucrose aqueous solution contains concentration of 10000(ppm)
[24] = Compound was tested at the concentration of 2.0 mg/mL for percent sucrose intensity in aqueous sucrose solution (3.5%)
[25] = Compound was tested at the concentration of 2.0 mg/mL for percent sucrose intensity in aqueous sucrose solution (5.6%)
[26] = Compound was tested at the concentration of 2.0 mg/mL for percent sucrose intensity in aqueous sucrose solution (7.5%)
[27] = Compound was tested at the concentration of 2000(ppm) for percent sucrose intensity in aspartame solution contains concentration of 1000(ppm)
[28] = Compound was tested at the concentration of 2000(ppm) for percent sucrose intensity in aspartame solution contains concentration of 1500(ppm)
[29] = Compound was tested at the concentration of 2000(ppm) for percent sucrose intensity in aspartame solution contains concentration of 250(ppm)
[30] = Compound was tested at the concentration of 2000(ppm) for percent sucrose intensity in aspartame solution contains concentration of 2500(ppm)
[31] = Compound was tested at the concentration of 2000(ppm) for percent sucrose intensity in aspartame solution contains concentration of 3000(ppm)
[32] = Compound was tested at the concentration of 2000(ppm) for percent sucrose intensity in aspartame solution contains concentration of 500(ppm)
[33] = Compound was tested at the concentration of 2000(ppm) for percent sucrose intensity in aspartame solution contains concentration of 750(ppm)
[34] = Compound was tested at the concentration of 3.0 mg/mL for percent sucrose intensity in aqueous sucrose solution (10%)
[35] = Compound was tested at the concentration of 3.0 mg/mL for percent sucrose intensity in aqueous sucrose solution (12.5%)
[36] = Compound was tested at the concentration of 3.0 mg/mL for percent sucrose intensity in aqueous sucrose solution (3.5%)
[37] = Compound was tested at the concentration of 3.0 mg/mL for percent sucrose intensity in aqueous sucrose solution (5.6%)
[38] = Compound was tested at the concentration of 3.0 mg/mL for percent sucrose intensity in aqueous sucrose solution (7.5%)
[39] = Compound was tested at the concentration of 4.0 mg/mL for percent sucrose intensity in aqueous sucrose solution (10%)
[40] = Compound was tested at the concentration of 0(ppm) for percent sucrose equivalent intensity in thaumatin aqueous solution contains concentration of 40(ppm)
[41] = Compound was tested at the concentration of 0(ppm) for percent sucrose intensity in aspartame solution contains concentration of 1000(ppm)
[42] = Compound was tested at the concentration of 0(ppm) for percent sucrose intensity in aspartame solution contains concentration of 1500(ppm)
[43] = Compound was tested at the concentration of 0(ppm) for percent sucrose intensity in aspartame solution contains concentration of 2000(ppm)
[44] = Compound was tested at the concentration of 0(ppm) for percent sucrose intensity in aspartame solution contains concentration of 250(ppm)
[45] = Compound was tested at the concentration of 0(ppm) for percent sucrose intensity in aspartame solution contains concentration of 2500(ppm)
[46] = Compound was tested at the concentration of 0(ppm) for percent sucrose intensity in aspartame solution contains concentration of 3000(ppm)
[47] = Compound was tested at the concentration of 0(ppm) for percent sucrose intensity in aspartame solution contains concentration of 500(ppm)
[48] = Compound was tested at the concentration of 0(ppm) for percent sucrose intensity in aspartame solution contains concentration of 750(ppm)
[49] = Compound was tested at the concentration of 0.0 mg/mL for percent sucrose intensity in aqueous sucrose solution( 10%)
[50] = Compound was tested at the concentration of 4000(ppm) for percent sucrose equivalent intensity in aspartame aqueous solution contains concentration of 750(ppm)
[51] = Compound was tested at the concentration of 4000(ppm) for percent sucrose equivalent intensity in rebaudioside A aqueous solution contains concentration of 638(ppm)
[52] = Compound was tested at the concentration of 4.0 mg/mL for percent sucrose intensity in aqueous sucrose solution (12.5%)
[53] = Compound was tested at the concentration of 4.0 mg/mL for percent sucrose intensity in aqueous sucrose solution (3.5%)
[54] = Compound was tested at the concentration of 4.0 mg/mL for percent sucrose intensity in aqueous sucrose solution (5.6%)
[55] = Compound was tested at the concentration of 4.0 mg/mL for percent sucrose intensity in aqueous sucrose solution (7.5%)
[56] = Compound was tested at the concentration of 4000(ppm) for percent sucrose equivalent intensity in MAG aqueous solution contains concentration of 3000(ppm)
[57] = Compound was tested at the concentration of 4000(ppm) for percent sucrose equivalent intensity in NHDHC aqueous solution contains concentration of 250(ppm)
[58] = Compound was tested at the concentration of 4000(ppm) for percent sucrose equivalent intensity in Na cyclamate aqueous solution contains concentration of 5000(ppm)
[59] = Compound was tested at the concentration of 4000(ppm) for percent sucrose equivalent intensity in acesulfame-K aqueous solution contains concentration of 1000(ppm)
[60] = Compound was tested at the concentration of 0(ppm) for percent sucrose equivalent intensity in acesulfame-K aqueous solution contains concentration of 1000(ppm)
[61] = Compound was tested at the concentration of 0(ppm) for percent sucrose equivalent intensity in aspartame aqueous solution contains concentration of 750(ppm)
[62] = Compound was tested at the concentration of 0(ppm) for percent sucrose equivalent intensity in rebaudioside A aqueous solution contains concentration of 638(ppm)
[63] = Compound was tested at the concentration of 0(ppm) for percent sucrose equivalent intensity in saccharin aqueous solution contains concentration of 330(ppm)
[64] = Compound was tested at the concentration of 0(ppm) for percent sucrose equivalent intensity in sucralose aqueous solution contains concentration of 152(ppm)
[65] = Compound was tested at the concentration of 0(ppm) for percent sucrose equivalent intensity in MAG aqueous solution contains concentration of 3000(ppm)
[66] = Compound was tested at the concentration of 0(ppm) for percent sucrose equivalent intensity in NHDHC aqueous solution contains concentration of 250(ppm)
[67] = Compound was tested at the concentration of 0(ppm) for percent sucrose equivalent intensity in Na cyclamate aqueous solution contains concentration of 5000(ppm)
[68] = Compound was tested at the concentration of 1000(ppm) for percent sucrose intensity in aspartame solution contains concentration of 1500(ppm)
[69] = Compound was tested at the concentration of 1000(ppm) for percent sucrose intensity in aspartame solution contains concentration of 2000(ppm)
[70] = Compound was tested at the concentration of 1000(ppm) for percent sucrose intensity in aspartame solution contains concentration of 250(ppm)
[71] = Compound was tested at the concentration of 1000(ppm) for percent sucrose intensity in aspartame solution contains concentration of 3000(ppm)
[72] = Compound was tested at the concentration of 1000(ppm) for percent sucrose intensity in aspartame solution contains concentration of 500(ppm)
[73] = Compound was tested at the concentration of 1000(ppm) for percent sucrose intensity in aspartame solution contains concentration of 750(ppm)
[74] = Compound was tested at the concentration of 2.0 mg/mL for percent sucrose intensity in aqueous sucrose solution (10%)
[75] = Compound was tested at the concentration of 2.0 mg/mL for percent sucrose intensity in aqueous sucrose solution (12.5%)
[76] = Compound was tested at the concentration of 1000(ppm) for percent sucrose intensity in aspartame solution contains concentration of 2500(ppm)
[77] = Compound was tested at the concentration of 2000(ppm) for percent sucrose intensity in aspartame solution contains concentration of 2000(ppm)
[78] = Compound was tested at the concentration of 0.0 mg/mL for percent sucrose intensity in aqueous sucrose solution(12.5%)

N#Cc1ccc(NC(=O)NCS(=O)(=O)O)cc1
Sweetness potency [1]: 6.44 0-15 scale | Sweetness potency [2]: 6.91 0-15 scale | Sweetness potency [3]: 1.37 0-15 scale | Sweetness potency [4]: 8.86 0-15 scale | Sweetness potency [5]: 7.82 0-15 scale | Sweetness potency [6]: 2.57 0-15 scale | Sweetness potency [7]: 4.46 0-15 scale | Sweetness potency [8]: 4.06 0-15 scale | Sweetness potency [9]: 1.43 0-15 scale | Sweetness potency [10]: 3.23 0-15 scale | Sweetness potency [11]: 6.23 0-15 scale | Sweetness potency [12]: 5.85 0-15 scale | Bitter taste intensity [13]: 10.5 0-15 scale | Bitter taste intensity [14]: 11.8 0-15 scale | Bitter taste intensity [15]: 4.77 0-15 scale | Bitter taste intensity [16]: 7.8 0-15 scale | Bitter taste intensity [17]: 5.73 0-15 scale | Sweetness potency [18]: 4 0-15 scale | Sweetness potency [19]: 6.1 0-15 scale | Sweetness potency [20]: 8.5 0-15 scale | Sweetness potency [21]: 8.83 0-15 scale | Bitter taste intensity [22]: 8.48 0-15 scale | Sweetness potency [23]: 9.6 0-15 scale | Sweetness potency [24]: 2.3 0-15 scale | Sweetness potency [25]: 3.6 0-15 scale | Sweetness potency [26]: 4.9 0-15 scale | Sweetness potency [27]: 7.34 0-15 scale | Sweetness potency [28]: 8.35 0-15 scale | Sweetness potency [29]: 2.11 0-15 scale | Sweetness potency [30]: 8.95 0-15 scale | Sweetness potency [31]: 9.11 0-15 scale | Sweetness potency [32]: 4.48 0-15 scale | Sweetness potency [33]: 6.24 0-15 scale | Sweetness potency [34]: 6.5 0-15 scale | Sweetness potency [35]: 8.6 0-15 scale | Sweetness potency [36]: 1.6 0-15 scale | Sweetness potency [37]: 2.2 0-15 scale | Sweetness potency [38]: 4.2 0-15 scale | Sweetness potency [39]: 4.5 0-15 scale | Sweetness potency [40]: 8.86 0-15 scale | Sweetness potency [41]: 10.1 0-15 scale | Sweetness potency [42]: 11.4 0-15 scale | Sweetness potency [43]: 12 0-15 scale | Sweetness potency [44]: 5.34 0-15 scale | Sweetness potency [45]: 12.9 0-15 scale | Sweetness potency [46]: 11.4 0-15 scale | Sweetness potency [47]: 7.55 0-15 scale | Sweetness potency [48]: 9.78 0-15 scale | Sweetness potency [49]: 10.1 0-15 scale | Sweetness potency [50]: 3.87 0-15 scale | Sweetness potency [51]: 3.11 0-15 scale | Sweetness potency [52]: 6.4 0-15 scale | Sweetness potency [53]: 1.2 0-15 scale | Sweetness potency [54]: 1.3 0-15 scale | Sweetness potency [55]: 3.3 0-15 scale | Sweetness potency [56]: 5.28 0-15 scale | Sweetness potency [57]: 5.98 0-15 scale | Sweetness potency [58]: 6.05 0-15 scale | Sweetness potency [59]: 4.59 0-15 scale | Sweetness potency [60]: 7.88 0-15 scale | Sweetness potency [61]: 9.88 0-15 scale | Sweetness potency [62]: 7.62 0-15 scale | Sweetness potency [63]: 8.15 0-15 scale | Sweetness potency [64]: 8.52 0-15 scale | Sweetness potency [65]: 6.97 0-15 scale | Sweetness potency [66]: 8.85 0-15 scale | Sweetness potency [67]: 10.1 0-15 scale | Sweetness potency [68]: 9.62 0-15 scale | Sweetness potency [69]: 10.5 0-15 scale | Sweetness potency [70]: 3.3 0-15 scale | Sweetness potency [71]: 10.7 0-15 scale | Sweetness potency [72]: 5.98 0-15 scale | Sweetness potency [73]: 7.43 0-15 scale | Sweetness potency [74]: 7.3 0-15 scale | Sweetness potency [75]: 9.3 0-15 scale | Sweetness potency [76]: 10.2 0-15 scale | Sweetness potency [77]: 9.35 0-15 scale | Sweetness potency [78]: 12.3 0-15 scale
